# According to patent US10364240B2, “Aryl sulfonamides” (ChemoCentryx, Inc., priority 2002, dated 2019):
# Molecular target: T1, CCR9 (Homo sapiens, UniProt P51686)
# T1 construct: CCR9-expressing cells (such as a T cell line MOLT-4 cells)
# T1 sequence (P51686 1-369): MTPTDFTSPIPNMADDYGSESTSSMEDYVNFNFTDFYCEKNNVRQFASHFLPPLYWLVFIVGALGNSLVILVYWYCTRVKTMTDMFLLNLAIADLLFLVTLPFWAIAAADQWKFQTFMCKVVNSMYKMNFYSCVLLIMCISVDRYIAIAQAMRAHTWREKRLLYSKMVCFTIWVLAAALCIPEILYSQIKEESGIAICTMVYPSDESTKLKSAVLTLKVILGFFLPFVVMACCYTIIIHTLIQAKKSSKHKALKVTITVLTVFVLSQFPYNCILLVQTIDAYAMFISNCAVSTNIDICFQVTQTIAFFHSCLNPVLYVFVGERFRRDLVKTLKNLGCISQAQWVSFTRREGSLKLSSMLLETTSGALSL
# Assay: chemotaxis (conventional migration) assay and/or calcium mobilization (calcium flux) assay
# Format: cell-based
# Conditions: either or both of the chemotaxis assay and calcium mobilization assays; MOLT-4 cells, TECK
# Method: MOLT-4 cells were obtained from the American Type Culture Collection (Manassas, Va.) and cultured in RPMI tissue culture medium supplemented with 10% fetal calf serum (FCS) in a humidified 5% CO2 incubator at 37° C. Recombinant human chemokine protein TECK was obtained from R&D Systems (Minneapolis, Minn.). ChemoTX® chemotaxis microchambers were purchased from Neuro Probe (Gaithersburg, Md.). CyQUANT® cell proliferation kits were purchased from Molecular Probes (Eugene, Oreg.). Calcium indicator dye Fluo-4 AM was purchased from Molecular Devices (Mountain View, Calif.).
# Conventional migration assay was used to determine the efficacy of potential receptor antagonists in blocking migration mediated through CCR9. This assay was routinely performed using the ChemoTX® microchamber system with a 5-μm pore-sized polycarbonate membrane. To begin such an assay, MOLT-4 cells were harvested by centrifugation of cell suspension at 1000 PRM on a GS-6R Beckman centrifuge. The cell pellet was resuspended in chemotaxis buffer (HBSS with 0.1% BSA) at 5×10^6 cells/mL. Test compounds at desired concentrations were prepared from 10 mM stock solutions by serial dilutions in chemotaxis buffer. An equal volume of cells and compounds were mixed and incubated at room temperature for 15 minutes. Afterwards, 20 μL of the mixture was transferred onto the porus membrane of a migration microchamber, with 29 μL of 50 nM chemokine TECK protein placed at the lower chamber. Following a 150-minute incubation at 37° C., during which cells migrated against the chemokine gradient, the assay was terminated by removing the cell drops from atop the filter. To quantify cells migrated across the membrane, 5 μL of 7× CyQUANT® solution was added to each well in the lower chamber, and the fluorescence signal measured on a Spectrafluor Plus fluorescence plate reader (TECAN, Durham, N.C.). The degree of inhibition was determined by comparing migration signals betweeen compound-treated and untreated cells. IC50 calculation was further performed by non-linear squares regression analysis using Graphpad Prism (Graphpad Software, San Diego, Calif.).
# Calcium flux assay measures an increase in intracellular calcium following ligand-induced receptor activation. In the screen of CCR9 antagonists, it was used as a secondary assay carried out on a FLIPR® machine (Molecular Devices, Mountain View, Calif.). To begin an assay, MOLT-4 cells were harvested by centrifugation of cell suspension, and resuspended to 1.5×10^6 cells/mL in HBSS (with 1% fetal calf serum). Cells were then labeled with a calcium indicator dye Fluo-4 AM for 45 minutes at 37° C. with gentle shaking. Following incubation, cells were pelletted, washed once with HBSS and resuspended in the same buffer at a density of 1.6×10^6 cells/mL. One hundred microliters of labeled cells were mixed with 10 μL of test compound at the appropriate concentrations on an assay plate. […] The degree of inhibition was determined by comparing calcium signals between compound-treated and untreated cells. IC50 calculations were further performed by non-linear squares regression analysis using Graphpad Prism (Graphpad Software, San Diego, Calif.).
row,SMILES,IC50
1,Cc1cc(C(=O)c2cc(Cl)ccc2NS(=O)(=O)c2ccc(-c3ncco3)cc2)ccn1,< 1000 nM
2,O=C(c1ccncc1)c1cc(Cl)ccc1NS(=O)(=O)c1ccc2c(c1)CNCC2,< 1000 nM
3,Cc1ccc(C(=O)c2cc(Cl)ccc2NS(=O)(=O)c2ccc(OC(C)C)cc2)c[n+]1[O-],< 1000 nM
4,O=C(c1cccnc1)c1cc(Cl)ccc1NS(=O)(=O)c1ccc(-c2nccs2)cc1,> 1000 nM
5,O=C(c1cc[n+]([O-])cc1)c1cc(Cl)ccc1NS(=O)(=O)c1ccc(-c2cnco2)cc1,< 1000 nM
6,CC1COC(C)(c2ccc(S(=O)(=O)Nc3ccc(Cl)cc3C(=O)c3ccncc3)cc2)O1 (stereo not drawn),< 1000 nM
7,Cc1ccc(C(=O)c2cc(Cl)ccc2NS(=O)(=O)c2ccc(C3C[C@@H](C)O[C@@H](C)C3)cc2)cn1 (stereo partly drawn),< 1000 nM
8,Cc1c(C(=O)c2cc(Cl)ccc2NS(=O)(=O)c2ccc(OC(F)(F)F)cc2)ccc[n+]1[O-],< 1000 nM
9,Cc1cc(C(=O)c2cc(Cl)ccc2NS(=O)(=O)c2ccc(S(C)(=O)=O)cc2)ccn1,> 1000 nM
10,CC(C)(C)c1ccc(S(=O)(=O)Nc2ccc(Cl)cc2C(=O)c2cnccn2)cc1,< 1000 nM
11,O=C(c1ccncc1)c1cc(Br)ccc1NS(=O)(=O)c1ccc(OC(F)(F)F)cc1,< 1000 nM
12,CC(C)(C)c1ccc(S(=O)(=O)Nc2ccc(Cl)cc2C(=O)c2ncccn2)cc1,< 1000 nM
13,COc1cc(C(=O)c2cc(Cl)ccc2NS(=O)(=O)c2ccc(C(C)(C)C)cc2)ccn1,< 1000 nM
14,CCc1ccc(S(=O)(=O)Nc2ccc(Br)cc2C(=O)c2ccncc2)cc1,< 1000 nM
15,COC(=O)CCc1ccc(S(=O)(=O)Nc2ccc(Cl)cc2C(=O)c2ccc(C)nc2)cc1,< 1000 nM
16,C[C@@H]1CC(c2ccc(S(=O)(=O)Nc3ccc(Cl)cc3C(=O)c3cccnc3)cc2)C[C@H](C)O1 (stereo partly drawn),< 1000 nM
17,CC1(c2ccc(S(=O)(=O)Nc3ccc(Cl)cc3C(=O)c3cc[nH]n3)cc2)CCOCC1,< 1000 nM
18,CS(=O)(=O)c1ccc(S(=O)(=O)Nc2ccc(Cl)cc2C(=O)c2cccnc2)cc1,> 1000 nM
19,Cc1c(C(=O)c2cc(Cl)ccc2NS(=O)(=O)c2ccc(OC(C)C)cc2)ccc[n+]1[O-],< 1000 nM
20,CC(C)(C)c1ccc(S(=O)(=O)Nc2ccc(Cl)cc2C(=O)c2ccc(S(C)(=O)=O)nc2)cc1,< 1000 nM
21,O=C(c1cccnc1)c1cc(Cl)ccc1NS(=O)(=O)c1ccc(-c2cocn2)cc1,< 1000 nM
22,CS(=O)(=O)c1ccc(S(=O)(=O)Nc2ccc(Br)cc2C(=O)c2ccncc2)cc1,< 1000 nM

row,SMILES,IC50
1,CC(C)(c1ccc(S(=O)(=O)Nc2ccc(Cl)cc2C(=O)c2ccccn2)cc1)c1ncco1,< 1000 nM
2,CSc1cc(C(=O)c2cc(Cl)ccc2NS(=O)(=O)c2ccc(C(C)(C)C)cc2)ccn1,< 1000 nM
3,Cc1ccc(C(=O)c2cc(Cl)ccc2NS(=O)(=O)c2ccc(OC(F)(F)F)cc2)c[n+]1[O-],< 1000 nM
4,O=C(c1ncccn1)c1cc(Cl)ccc1NS(=O)(=O)c1ccc(-c2cnco2)cc1,< 1000 nM
5,O=C(c1ccncc1)c1cc(Cl)ccc1NS(=O)(=O)c1ccc(Br)cc1,< 1000 nM
6,Cc1ccc(C(=O)c2cc(Cl)ccc2NS(=O)(=O)c2ccc(S(C)(=O)=O)cc2)cn1,< 1000 nM
7,COC(=O)CCc1ccc(S(=O)(=O)Nc2ccc(Cl)cc2C(=O)c2cccnc2C)cc1,< 1000 nM
8,Cc1ccc(S(=O)(=O)Nc2ccc(Cl)cc2C(=O)c2ccncc2)cc1,< 1000 nM
9,C[C@@H]1CN(c2ccc(S(=O)(=O)Nc3ccc(Cl)cc3C(=O)c3cccnc3)cc2F)C[C@H](C)O1,< 1000 nM
10,CC(=O)OCC(C)(C)c1ccc(S(=O)(=O)Nc2ccc(Cl)cc2C(=O)c2ccncc2)cc1,< 1000 nM
11,O=C(c1cccnc1)c1cc(Cl)ccc1NS(=O)(=O)c1ccc(-c2cnco2)cc1,< 1000 nM
12,COc1c(Cl)ccc(NS(=O)(=O)c2ccc(C(C)(C)C)cc2)c1C(=O)c1ccncc1 [drawing 520],> 1000 nM
13,COc1c(Cl)ccc(NS(=O)(=O)c2ccc(C(C)(C)C)cc2)c1C(=O)c1ccncc1 [drawing 475],< 1000 nM
14,COC(=O)CCc1ccc(S(=O)(=O)Nc2ccc(Cl)cc2C(=O)c2ccnc(C)c2)cc1,> 1000 nM
15,CC(C)(C)c1ccc(S(=O)(=O)Nc2c(Cl)cccc2C(=O)c2ccncc2)cc1,< 1000 nM
16,CC(C)(C)c1ccc(S(=O)(=O)Nc2ccc(Cl)cc2C(=O)c2cccc[n+]2[O-])cc1,< 1000 nM
17,COc1ccc(S(=O)(=O)Nc2ccc(Cl)cc2C(=O)c2ccccn2)cc1,> 1000 nM
18,CC(C)(CO)c1ccc(S(=O)(=O)Nc2ccc(Cl)cc2C(=O)c2cc[n+]([O-])cc2)cc1,< 1000 nM
19,C[C@H]1OC(C)(c2ccc(S(=O)(=O)Nc3ccc(Cl)cc3C(=O)c3ccncc3)cc2)O[C@@H]1C,> 1000 nM
20,CC(C)(c1ccc(S(=O)(=O)Nc2cc(F)c(F)cc2C(=O)c2cccnc2)cc1)c1ncco1,< 1000 nM
21,Cc1nc(C)c(-c2ccc(S(=O)(=O)Nc3ccc(Cl)cc3C(=O)c3ccncc3)cc2)o1,< 1000 nM

# System: MDR1a-knockout mice
# Assay: MDR1a-knockout mice colitis model, prophylactic administration
# Format: in vivo
# Conditions: female mice, 50 mg/kg twice a day subcutaneous, 14 weeks from age 10 weeks
# Method: The MDR1a-knockout mice, which lack the P-glycoprotein gene, spontaneously develop colitis under specific pathogen-free condition. The pathology in these animals has been characterized as Th1-type T cell-mediated inflammation similar to ulcerative colitis in humans. Disease normally begins to develop at around 8-10 weeks after birth. However the ages at which disease emerges and the ultimate penetrance level often vary considerably among different animal facilities.
# [drawing 328] was evaluated by prophylactic administration for its ability to delay disease onset. Female mice (n=34) were dosed with 50 mg/kg twice a day by subcutaneous injections for 14 consecutive weeks starting at age 10 weeks. […] Moreover, the number of mice developing diarrhea was also lower among compound-treated mice (17%), compared to mice receiving vehicle alone (24%)(FIG. 1).
row,SMILES,IBD-associated growth retardation
1,CC(C)(C)c1ccc(S(=O)(=O)Nc2ccc(Cl)cc2C(=O)c2ccncc2)cc1,prevented IBD-associated growth retardation

# Same assay, conditions: female mice, 50 mg/kg twice a day subcutaneous, 14 weeks from age 10 weeks; vehicle 24%
row,SMILES,number of mice developing diarrhea
1,CC(C)(C)c1ccc(S(=O)(=O)Nc2ccc(Cl)cc2C(=O)c2ccncc2)cc1,17%
